Here are results for nine molecules from patent publication US9296734B2 (AMGEN INC., priority 2013, dated 2016).

The target in one experiment is Cathepsin D (Cat D) (Homo sapiens (Human), UniProt P07339). As to the kind of experiment: In vitro enzymatic Cathepsin D (Cat D) FRET assay. Type of experiment: biochemical. The note with it: read-out: CatD IC50. In short, it runs like this: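 CHO-expressed recombinant Cat D cleaves a fluorophore/quencher FRET peptide (20 nM) in 0.05 M citrate pH 3.5, 5 mM CHAPS, 10% DMSO final, over 1 h. Tris addition neutralizes pH to stop the reaction; fluorescence read at excitation 500 nm, emission 580 nm.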

The subject of experiment [1] is Aβ40 in conditioned medium of cells stably expressing Amyloid Precursor Protein (APP). As to the kind of experiment: In vitro BACE cell-based assay (Aβ40 sandwich ELISA). The note with it: Homo sapiens. The procedure, abridged:
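Secreted Aβ40 was quantified by sandwich ELISA (pAb40 capture, biotinylated 6E10 detection, Europium time-resolved fluorescence). IC50 derived from percent inhibition versus concentration.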
Background: An ELISA detects its analyte on a solid surface through an enzyme-linked reagent.

In experiment [2] the target is Beta Secretase enzyme (BACE) (Homo sapiens (Human), UniProt P56817). Kind of experiment: In vitro enzymatic BACE FRET assay. Format: biochemical. The note with it: read-out: BACE 1 FRET assay IC50. The procedure, abridged:
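Reactions ran in 0.05 M acetate pH 4.2 with 10% DMSO final and 100 uM genapol. They were started with 50 nM peptide FRET substrate (fluorophore and quencher flanking the BACE cleavage site) and incubated one hour. Tris addition raised the pH to neutral to stop the reaction before fluorescence reading.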

The mark [3] stands for this setting: average IC50, cathepsin D enzyme assay.
The mark [4] stands for this setting: HEK293, average IC50, HEK cell assay, read-out: HEK cell assay IC50.
The mark [5] stands for this setting: average IC50, BACE enzyme assay.
Where [6] appears, read: HEK293, HEK cells, average, read-out: HEK cell assay IC50.

Read-outs that look alike come from different tables or passages of the source.

Beta Secretase enzyme (BACE), sequence (P56817 46-501): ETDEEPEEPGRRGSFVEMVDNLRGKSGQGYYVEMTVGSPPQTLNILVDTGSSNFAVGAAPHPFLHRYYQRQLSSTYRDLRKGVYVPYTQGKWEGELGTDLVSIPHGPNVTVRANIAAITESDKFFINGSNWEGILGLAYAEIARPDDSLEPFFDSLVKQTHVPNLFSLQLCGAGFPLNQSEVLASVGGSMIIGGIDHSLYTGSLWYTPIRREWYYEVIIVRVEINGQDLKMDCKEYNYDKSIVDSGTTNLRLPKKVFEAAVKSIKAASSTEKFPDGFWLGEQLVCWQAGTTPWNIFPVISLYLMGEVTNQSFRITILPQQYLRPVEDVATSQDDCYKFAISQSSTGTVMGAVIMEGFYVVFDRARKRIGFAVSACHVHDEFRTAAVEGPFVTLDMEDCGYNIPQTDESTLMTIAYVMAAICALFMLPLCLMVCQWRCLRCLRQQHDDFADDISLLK
Cathepsin D (Cat D), sequence (P07339 65-412, species assumed): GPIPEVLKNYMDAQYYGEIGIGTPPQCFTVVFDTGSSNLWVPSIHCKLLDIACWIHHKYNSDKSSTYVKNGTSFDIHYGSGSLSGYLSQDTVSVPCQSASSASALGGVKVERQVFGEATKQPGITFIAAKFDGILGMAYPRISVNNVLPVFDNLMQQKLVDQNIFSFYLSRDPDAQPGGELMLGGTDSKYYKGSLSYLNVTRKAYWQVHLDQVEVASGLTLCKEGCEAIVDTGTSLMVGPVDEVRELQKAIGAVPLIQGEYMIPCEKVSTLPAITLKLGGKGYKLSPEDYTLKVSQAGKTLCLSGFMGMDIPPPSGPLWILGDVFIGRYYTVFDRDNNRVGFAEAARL

As usually defined, the IC50 is the concentration needed to halve the response being measured. In the case of `COc1cnc(C(=O)Nc2cc(F)c(F)c([C@]3(CF)C[C@@H](C(F)(F)F)OC(N)=N3)c2)cn1` [Example 153, N-(3-((4S,6S)-2-amino-4-(fluoromethyl)-6-(trifluoromethyl)-5,6-dihydro-4H-1,3-oxazin-4-yl)-4,5-difluorophenyl)-5-methoxypyrazine-2-carboxamide], the IC50 on Cathepsin D (Cat D) (setting [3]) came to 3360 µM; in experiment [1] (setting [4]), 0.126 µM; in experiment [2] (setting [5]), 0.05 µM.
Take `COc1ccc(C(=O)Nc2cc(F)c(F)c([C@]3(CF)C[C@@H](C(F)(F)F)OC(N)=N3)c2)nc1` [Example 156, N-(3-((4S,6S)-2-amino-4-(fluoromethyl)-6-(trifluoromethyl)-5,6-dihydro-4H-1,3-oxazin-4-yl)-4,5-difluorophenyl)-5-methoxypicolinamide]: the IC50 at Cathepsin D (Cat D) (setting [3]) is above 400 µM; in experiment [1] (setting [4]) it was 0.123 µM; in experiment [2] (setting [5]), 0.062 µM.
With `C#CCOc1ccc(C(=O)Nc2cc(F)c(F)c([C@]3(CF)C[C@@H](C(F)(F)F)OC(N)=N3)c2)nc1` [Example 159, N-(3-((4S,6S)-2-amino-4-(fluoromethyl)-6-(trifluoromethyl)-5,6-dihydro-4H-1,3-oxazin-4-yl)-4,5-difluorophenyl)-5-(prop-2-yn-1-yloxy)picolinamide], the results for the IC50 (at Cathepsin D (Cat D) (setting [3]); in experiment [1] (setting [4]); in experiment [2] (setting [5])) were above 400 µM, 0.093 µM and 0.013 µM, respectively.
For `NC1=N[C@](CF)(c2cc(Nc3nccc4cc(Cl)cnc34)cc(F)c2F)C[C@@H](C(F)(F)F)O1` [Example 161, (4S,6S)-4-(5-((3-chloro-1,7-naphthyridin-8-yl)amino)-2,3-difluorophenyl)-4-(fluoromethyl)-6-(trifluoromethyl)-5,6-dihydro-4H-1,3-oxazin-2-amine] the same measures were above 400 µM, 0.535 µM and 0.023 µM.
`COc1cc(C#N)cnc1C(=O)Nc1cc(F)c(F)c([C@]2(C)C[C@@H](C(F)(F)F)OC(N)=N2)c1` [Example 168, N-(3-((4S,6S)-2-amino-4-methyl-6-(trifluoromethyl)-5,6-dihydro-4H-1,3-oxazin-4-yl)-4,5-difluorophenyl)-5-cyano-3-methoxypicolinamide]: the IC50 on Cathepsin D (Cat D) (setting [3]) is above 400 µM; in experiment [1] (HEK293, read-out: HEK cell assay IC50) it was 0.0061 µM; in experiment [2] (setting [5]), 0.051 µM.
Turning to `Cc1cc(Cl)cnc1C(=O)Nc1cc(F)c(F)c([C@]2(C)C[C@@H](C(F)(F)F)OC(N)=N2)c1` [Example 170, N-(3-((4S,6S)-2-amino-4-methyl-6-(trifluoromethyl)-5,6-dihydro-4H-1,3-oxazin-4-yl)-4,5-difluorophenyl)-5-chloro-3-methylpicolinamide], the IC50 came to 733 µM at Cathepsin D (Cat D) (setting [3]), 0.014 µM in experiment [1] (setting [4]) and 0.0095 µM in experiment [2] (setting [5]).
Taken in the same sequence, the figures for `C[C@@]1(c2cc(NC(=O)c3ncc(Cl)cc3Cl)cc(F)c2F)C[C@@H](C(F)(F)F)OC(N)=N1` [Example 172, N-(3-((4S,6S)-2-amino-4-methyl-6-(trifluoromethyl)-5,6-dihydro-4H-1,3-oxazin-4-yl)-4,5-difluorophenyl)-3,5-dichloropicolinamide] were 394 µM, 0.019 µM and 0.019 µM.
With `COc1cnc(C(=O)Nc2cc(F)c(F)c([C@]3(C)C[C@@H](C(F)(F)F)OC(N)=N3)c2)c(C)n1` [Example 173, N-(3-((4S,6S)-2-amino-4-methyl-6-(trifluoromethyl)-5,6-dihydro-4H-1,3-oxazin-4-yl)-4,5-difluorophenyl)-5-methoxy-3-methylpyrazine-2-carboxamide], the IC50 is above 400 µM on Cathepsin D (Cat D) (average), 0.085 µM in experiment [1] (setting [6]) and 0.118 µM in experiment [2] (average).
For `C[C@@]1(c2cc(NC(=O)c3ccc(Br)cn3)cc(F)c2F)C[C@@H](C(F)(F)F)OC(N)=N1` [Example 175, N-(3-((4S,6S)-2-amino-4-methyl-6-(trifluoromethyl)-5,6-dihydro-4H-1,3-oxazin-4-yl)-4,5-difluorophenyl)-5-bromopicolinamide] the same measures were 424 µM, 0.0066 µM and 0.022 µM.
